We go through 13 molecules from patent publication US9493486B2, “Diazaspirocycloalkane and azaspirocycloalkane” (Hoffmann-La Roche Inc., priority 2012, dated 2016).

The experiment addresses ATX (human His-tagged) (Homo sapiens (Human), UniProt Q13822). The experiment in a line: Human ATX enzyme inhibition assay (fluorescence quenching, MR121 substrate). It counts as biochemical. The conditions noted are these: 30 nM ATX, 1 μM MR121 substrate, 30° C. The source says: Human ATX Enzyme Inhibition Assay
Assay working solutions were made as follows:
In general, IC50 refers to the concentration needed to halve the response being measured. Low values mean greater potency, high ones weaker potency. `O=C(OCc1ccc(OCC(F)(F)F)cc1F)N1CCC2(CC1)CN(C(=O)C1CCc3nn[nH]c3C1)C2` (stereo not shown) [Example 12.38, 2-fluoro-4-(2,2,2-trifluoroethoxy)benzyl 2-(4,5,6,7-tetrahydro-1H-benzo[d][1,2,3]triazole-6-carbonyl)-2,7-diazaspiro[3.5]nonane-7-carboxylate] came in with a 50% inhibitory concentration (IC50) of 2.5 nM. The value for `O=C(OCc1ccc(OCC(F)(F)F)cc1)N1CCC2(CC1)CN(C(=O)C1CCc3nn[nH]c3C1)C2` (stereo not shown) [Example 12.39, 4-(2,2,2-trifluoroethoxy)benzyl 2-(4,5,6,7-tetrahydro-1H-benzo[d][1,2,3]triazole-6-carbonyl)-2,7-diazaspiro[3.5]nonane-7-carboxylate] was 5 nM; that for `O=C(OCc1ccc(OCC(F)(F)F)c(F)c1)N1CCC2(CC1)CN(C(=O)C1CCc3nn[nH]c3C1)C2` (stereo not shown) [Example 12.40, 3-fluoro-4-(2,2,2-trifluoroethoxy)benzyl 2-(4,5,6,7-tetrahydro-1H-benzo[d][1,2,3]triazole-6-carbonyl)-2,7-diazaspiro[3.5]nonane-7-carboxylate] was 2.5 nM; that for `O=C(OCc1ccc(OC(F)(F)F)cc1F)N1CC2(CCN(C(=O)C3CCc4[nH]nnc4C3)CC2)C1` (stereo not shown) [Example 12.41, 2-fluoro-4-(trifluoromethoxy)benzyl 7-(4,5,6,7-tetrahydro-1H-benzo[d][1,2,3]triazole-5-carbonyl)-2,7-diazaspiro[3.5]nonane-2-carboxylate] was 2 nM.

Turning to `O=C(OCc1ccc(OC(F)(F)F)cc1)N1CCC2(CC1)CN(C(=O)C1CCc3[nH]nnc3C1)C2` (stereo not shown) [Example 12.43, 4-(trifluoromethoxy)benzyl 2-(4,5,6,7-tetrahydro-1H-benzo[d][1,2,3]triazole-5-carbonyl)-2,7-diazaspiro[3.5]nonane-7-carboxylate], it took 1 nM to reach half-maximal inhibition (IC50). For `O=C(OCc1cc(Cl)cc(C(F)(F)F)c1)N1CCC2(CC1)CN(C(=O)c1ccc3[nH]nnc3c1)C2` [Example 12.44, 3-chloro-5-(trifluoromethyl)benzyl 2-(1H-benzo[d][1,2,3]triazole-5-carbonyl)-2,7-diazaspiro[3.5]nonane-7-carboxylate] the value was 8 nM; for `CS(=O)(=O)c1cc(COC(=O)N2CCC3(CC2)CN(S(=O)(=O)c2ccc4[nH]c(=O)oc4c2)C3)cc(C(F)(F)F)c1` [Example 12.45, 3-(methylsulfonyl)-5-(trifluoromethyl)benzyl 2-(2-oxo-2,3-dihydrobenzo[d]oxazol-6-ylsulfonyl)-2,7-diazaspiro[3.5]nonane-7-carboxylate], 39 nM; for `O=C(OCc1ccc(OC(F)(F)F)cc1)N1CCC2(CC1)CN(C(=O)N1CCc3[nH]nnc3C1)C2` [Example 13, 4-(Trifluoromethoxy)benzyl 2-(4,5,6,7-tetrahydro-1H-[1,2,3]triazolo[4,5-c]pyridine-5-carbonyl)-2,7-diazaspiro[3.5]nonane-7-carboxylate], 3 nM.

Molecule `O=C(OCc1ccc(OC(F)(F)F)cc1F)N1CCC2(CC1)CN(C(=O)N1CCc3[nH]nnc3C1)C2` [Example 13.01, 2-fluoro-4-(trifluoromethoxy)benzyl 2-(4,5,6,7-tetrahydro-1H-[1,2,3]triazolo[4,5-c]pyridine-5-carbonyl)-2,7-diazaspiro[3.5]nonane-7-carboxylate] came in with an IC50 of 1 nM. The value for `O=C(NCc1c[nH]nn1)N1CC2(CCN(C(=O)OCc3ccc(OC(F)(F)F)cc3)CC2)C1` [Example 14, [4-(Trifluoromethoxy)phenyl]methyl 2-((1H-triazol-4-ylmethyl)carbamoyl)-2,7-diazaspiro[3.5]nonane-7-carboxylate] was 23 nM.

`O=C(NCc1c[nH]nn1)N1CC2(CCN(C(=O)OCc3ccc(OC(F)(F)F)cc3F)CC2)C1` [Example 14.01, [2-Fluoro-4-(trifluoromethoxy)phenyl]methyl 2-((1H-triazol-4-ylmethyl)carbamoyl)-2,7-diazaspiro[3.5]nonane-7-carboxylate] came in with an IC50 of 41.5 nM. For `O=C(OCc1ccc(C(F)(F)F)cc1F)N1CCC2(CC1)CN(C(=O)[C@H]1CCc3[nH]nnc3C1)C2` [Example 16A, (S)-[2-Fluoro-4-(trifluoromethyl)phenyl]methyl 2-[4,5,6,7-tetrahydro-1H-benzotriazole-5-carbonyl]-2,7-diazaspiro[3.5]nonane-7-carboxylate] the value was 100 nM; for `O=C(OCc1ccc(C(F)(F)F)cc1F)N1CCC2(CC1)CN(C(=O)[C@@H]1CCc3[nH]nnc3C1)C2` [Example 16B, (R)-[2-fluoro-4-(trifluoromethyl)phenyl]methyl 2-[4,5,6,7-tetrahydro-1H-benzotriazole-5-carbonyl]-2,7-diazaspiro[3.5]nonane-7-carboxylate], 9 nM.
